Read-outs that look alike come from different tables or passages of the source.
Experiments:
PDE4 [1] = assay: PDE4 activity in homogenate of guinea pig lungs or hearts (PDE4L); format: biochemical; details: guinea pig lung or heart homogenate; read-out: IC50 for PDE4 inhibition (PDE4L value)
Experimental: (§1) Activities of PDE1∼5 in the homogenate of guinea pig lungs or hearts were measured by a two-step procedure according to the previous method, using cAMP with [^3 H]-cAMP or cGMP with [^3 H]-cGMP as substrates. The enzyme preparation (25 μL) was incubated for 30 min at 37°C in a total assay volume of 100 μL containing 50 mM Tris-HCl (pH 7.4), 3 mM MgCl2, 1 mM dithiothreitol, 0.05% BSA, and 1 μM cAMP with 0.2 μCi [^3 H]-cAMP as a substrate alone or in the presence of 0.1 unit calmodulin with 10 μM CaCl2 or 5 μM cGMP, and 1 μM cGMP with 0.2 μCi [^3 H]-cGMP as another substrate alone or in the presence of 0.1 unit calmodulin with 10 μM CaCl2. […] The reagents and homogenate were mixed on ice, and the reaction was initiated by transferring the mixture to a water bath at 37°C. Following a 30 min incubation, the reaction was stopped by transferring the reaction vessel to a bath of boiling water for 3 min. After cooling on ice, 20 μL of a 1 mg/mL solution of Crotalus atrox snake venom was added to the reaction mixture, and the mixture was incubated at 37°C for 10 min. Unreacted [^3 H]-cAMP or [^3 H]-cGMP was removed by the addition of 500 μL of a 1-in-1 Tris-HCl (40 mM) buffer suspension of Dowex resin (1 × 2-400) with incubation on ice for 30 min. Each tube was then centrifuged at 3700 g for 2 min, and 100 μL of the supernatant was removed for liquid scintillation counting.

[2] = system: duration of xylazine/ketamine-induced anesthesia; assay: Xylazine/ketamine-induced anesthesia (surrogate of emesis); format: in vivo, BALB/c mice; details: 0.25 h before anesthesia, mice
Experimental: According to a previously described method and modified by us, hesperidin, hesperidin-3′-O-methylether (each 300 μmol/kg, subcutaneously (s.c.)), or Ro 20-1724 (0.01∼1 μmol/kg, s.c.), a reference drug, was, respectively, injected into 8∼12-week-old female BALB/c mice 1, 1 or 0.25 h prior to an i.p. injection of xylazine (10 mg/kg)/ketamine (70 mg/kg). The vehicle (control) for hesperidin, hesperidin-3′-O-methylether, or Ro 20-1724 was a mixture of DMSO : PEG 400 : saline (1 : 1 : 8, v/v). After the loss of the righting reflex (i.e., when a mouse remained on its back and no longer spontaneously righted itself to a prone position), the duration of anesthesia was measured until its return as the endpoint.

[3] = system: high-affinity rolipram-binding sites (HARBSs), PDE4H; assay: Displacement of [3H]-rolipram from high-affinity rolipram-binding sites of brain cell membranes (PDE4H); set-up: species or system guinea pig; details: for EC50: 2 nM [3H]-rolipram, guinea pig brain cell membranes, read-out: EC50 (PDE4H) for displacing [3H]-rolipram binding; for PDE4H/PDE4L ratio: therapeutic ratio, EC50 (PDE4H) / IC50 (PDE4L)
Experimental: When the above-mentioned guinea pigs were sacrificed, the whole brains were removed and homogenized with a glass/Teflon homogenizer (Glas-Col, Terre Haute, IN, USA) in 10 volumes of cold medium (pH 6.5) containing 20 mM Bis-Tris, 2 mM benzamidine, 2 mM EDTA, 50 mM sodium chloride, 0.1 mM PMSF, and 1 mM dithiothreitol. At 4°C, the homogenate was centrifuged at 170 g for 5 min to remove connective tissues and blood vessels. The suspended homogenate was then recentrifuged at 40,000 g for 30 min to separate the cytosolic and particulate portions. The particulate portion was resuspended in a suspension at a concentration of 400 mg/mL (wet weight/volume), after washing three times with homogenizing buffer. The particulate portion mainly consisted of cell membranes. […] Briefly, the reaction buffer consisted of 50 mM Tris-HCl and 5 mM MgCl2 (pH 7.5). […] After 1 h, the reaction was terminated by moving the reaction vessel into crushed ice. Then the reaction mixture was transferred onto Whatman GF/B glass-fiber filters, which were soaked in a 0.3% polyethyleneimine solution in a mini-funnel.

PDE1 = PDE1 activity in homogenate of guinea pig lungs or hearts ([3H]-cAMP/[3H]-cGMP two-step procedure); format: biochemical; details: guinea pig lung or heart homogenate; read-out: IC50 for PDE1 inhibition
Experimental: as §1

cytokines in BALF = assay: Cytokine levels in BALF of sensitized and challenged mice (flow cytometric CBA); format: in vivo, BABL/c mice
Experimental: (§2) According to the schedule (Figure 2), ten female BABL/c mice in each group were sensitized by an intraperitoneal (i.p.) injection of 20 μg of ovalbumin emulsified in 2.25 mg of an aluminum hydroxide gel, prepared from aluminum sulfate hexadecahydrate, in a total volume of 100 μL on days 0 and 14. Mice were challenged via the airway using 1% ovalbumin in saline for 30 min on days 28, 29, and 30 by ultrasonic nebulization. After the last ovalbumin challenge, AHR was assessed on day 32 (48 h after 1% ovalbumin provocation) in each group. Each group of mice was orally (p.o.) administered the vehicle (control), 30∼100 μmol/kg of hesperidin or 10∼100 μmol/kg of hesperidin-3′-O-methylether 2 h before and 6 and 24 h after ovalbumin provocation. For comparison, sham-treated mice were challenged with saline instead of 1% ovalbumin (nonchallenged). The vehicle, a mixture of DMSO : PEG 400 : saline (1 : 1 : 8, v/v), hesperidin, or hesperidin-3′-O-methylether was administered (p.o.) at a volume of 0.01 mL/g of body weight. AHR was assessed by barometric plethysmography using a whole-body plethysmograph (WBP) and analyzed using software of Life Science Suite P3 Analysis Modules (Gould, LDS Test and Measurement LLC, Valley View, OH, USA) in unrestrained animals. Mice were placed into the main chamber of the WBP, and the baseline enhanced pause (P enh) value was determined. Then mice were first nebulized with phosphate-buffered saline (PBS), and subsequently with increasing doses (6.25∼50 mg/mL) of methacholine for 3 min for each nebulization, followed by readings of breathing parameters for 3 min after each nebulization to determine P enh values. Twenty-four hours after P enh determination, these mice were anesthetized with pentobarbital (50 mg/kg, i.p.), and the lungs were lavaged via a tracheal tube with PBS (1 × 1.0 mL, 37°C). After lavage, blood was collected from the jugular vein and allowed to sit so that it would coagulate. The collected bronchoalveolar lavage fluid (BALF) and coagulated blood were respectively centrifuged at 630 g for 7 min and at 3700 g for 10 min at 4°C. After centrifugation, the BALF and serum supernatants were stored at −20°C until determinations of cytokines, including interleukin (IL)-2, IL-4, IL-5, tumor necrosis factor (TNF)-α, and interferon (IFN)-γ by flow cytometric methods using mouse Th1/Th2 cytokine CBA kits, and of a total immunoglobulin (Ig)E and IgG2a using ELISA kits (Pharmingen, San Diego, CA, USA) according to the respective recommendations of the manufacturers. Ovalbumin-specific IgE was measured as described previously. Wells were coated with 100 μL of ovalbumin (20 μg/mL) instead of the capture antibody. Levels are expressed in arbitrary units, where 1 arbitrary unit equals the optical density of the sample divided by the optical density of unchallenged mouse serum or BALF (standard). The BALF pellet was resuspended in ACK lysing buffer (1.658 g NH4Cl, 0.2 g KHCO3, and […] EDTA in 200 mL of water) to lyse the residual erythrocytes in each sample. The number of inflammatory cells was counted using a hemocytometer (Hausser Scientific, Horsham, PA, USA). Cytospin slides were stained and cell differentials were determined in a blinded fashion by counting at least 100 cells under light microscopy. All undetectable data (<1 pg/mL) of cytokines were taken as 0.5 pg/mL.

[4] = system: IgE and IgG2a in serum and BALF; assay: Total and ovalbumin-specific IgE and total IgG2a in serum and BALF (ELISA); format: in vivo, BABL/c mice
Experimental: as §2

[5] = system: inflammatory cells in BALF; assay: Inflammatory cell counts in BALF of sensitized and challenged mice; format: in vivo, BABL/c mice
Experimental: as §2

PDE3 = PDE3 activity in homogenate of guinea pig lungs or hearts; format: biochemical; details: guinea pig lung or heart homogenate; read-out: IC50 for PDE3 inhibition
Experimental: as §1

[6] = system: airway hyperresponsiveness in ovalbumin-sensitized and challenged mice; assay: Ovalbumin-induced airway hyperresponsiveness, Penh by whole-body plethysmography; format: in vivo, BABL/c mice; details: for Penh value at the baseline / Penh value with PBS nebulization: sensitized and challenged mice
Experimental: as §2

PDE4 [7] = details: read-out: IC50 for PDE4 inhibition; cited from earlier work

With CCCCOc1cc(CC2CNC(=O)N2)ccc1OC (centres unmarked) [Ro 20-1724, 4-(3-butoxy-4-methoxybenzyl)-2-imidazolidinone, reference compound] as the molecule, how does the IC50 (PDE4 [1]) read?
The IC50 was 3.5 ± 0.2 µM.

What about the “duration of xylazine/ketamine-induced anesthesia” value ([2]; 0.01∼1 μmol/kg s.c.) of the same molecule?
The value was “dose-dependently shortened”.

What about the “duration of xylazine/ketamine-induced anesthesia” value ([2]; 0.03∼1 μmol/kg s.c.) of the same molecule?
Its value is “significantly shortened”.

And the EC50 [3]?
The EC50 was 0.105 ± 0.0131 µM.

What about the PDE4H/PDE4L ratio [3] of the same molecule?
Its PDE4H/PDE4L ratio is 0.03.

For COc1ccc(C2CC(=O)c3c(O)cc(O[C@@H]4O[C@H](CO[C@@H]5O[C@@H](C)[C@H](O)[C@@H](O)[C@H]5O)[C@@H](O)[C@H](O)[C@H]4O)cc3O2)cc1OC (some centres unmarked) [hesperidin-3′-O-methylether], which IC50 (PDE1) is on record?
The IC50 was 13.6 ± 2.3 µM.

And the IC50 (PDE4 [1])?
The IC50 was 13.9 ± 2.4 µM.

And the “level of IFN-γ in BALF compared to the control” value (cytokines in BALF; 100 μmol/kg p.o.)?
The value was “significantly enhanced”.

And the “increases in levels of IL-2, IL-4, TNF-α in BALF” value (cytokines in BALF; 10∼100 μmol/kg p.o.)?
Its value is “significantly suppressed”.

And the “increase in level of IL-5 in BALF” value (cytokines in BALF; 30∼100 μmol/kg p.o.)?
The value was “significantly suppressed”.

And the “level of total IgG2a in the serum” value ([4]; 30 μmol/kg p.o.)?
The value was “enhanced”.

And the “total and OVA-specific IgE levels in the serum and BALF” value ([4]; 30 μmol/kg p.o.)?
Its value is “significantly suppressed”.

What about the “levels of total and ovalbumin-specific IgE in the serum and BALF” value ([4]; 30∼100 μmol/kg p.o.) of the same molecule?
The value was “dose-dependently and significantly suppressed”.

And the “reduction of total IgG2a level in the serum” value ([4]; 30∼100 μmol/kg p.o.)?
The value was “dose-dependently and significantly reversed”.

What about the EC50 [3] of the same molecule?
Its EC50 is 218 ± 32.1 µM.

What about the PDE4H/PDE4L ratio [3] of the same molecule?
The PDE4H/PDE4L ratio was 15.7.

And the “numbers of all types of inflammatory cells in BALF” value ([5]; 10 μmol/kg p.o.)?
Its value is “unaffected”.

And the “numbers of all inflammatory cells examined in BALF” value ([5]; 30 μmol/kg p.o.)?
Its value is “significantly suppressed”.

And the “increases in numbers of total inflammatory cells, macrophages, lymphocytes, neutrophils, and eosinophils in BALF” value ([5]; 30∼100 μmol/kg p.o.)?
The value was “significantly suppressed”.

What about the IC50 (PDE3) of the same molecule?
Its IC50 is 13.2 ± 0.9 µM.

And the “Penh value at the baseline” value ([6]; 10 μmol/kg p.o.)?
Its value is 2.41 ± 0.05.

What about the “Penh value with PBS nebulization” value ([6]; 10 μmol/kg p.o.) of the same molecule?
The value was 2.41 ± 0.06.

And the “suppression of AHR” value ([6]; 30 μmol/kg p.o.)?
The value was “significantly suppressed AHR”.

What about the “Penh value at the baseline” value ([6]; 30 μmol/kg p.o.) of the same molecule?
The value was 2.38 ± 0.06.

What about the “Penh value with PBS nebulization” value ([6]; 30 μmol/kg p.o.) of the same molecule?
The value was 2.42 ± 0.05.

And the “Penh value at the baseline” value ([6]; 100 μmol/kg p.o.)?
The value was 2.41 ± 0.05.

And the “Penh value with PBS nebulization” value ([6]; 100 μmol/kg p.o.)?
Its value is 2.39 ± 0.06.

And the “enhancement of Penh values induced by 25 and 50 mg/mL methacholine” value ([6]; 30∼100 μmol/kg p.o., vs control (vehicle))?
The value was “significantly attenuated”.

With COc1cc(O)c2c(c1)O[C@H](c1ccc(OC)c(OC)c1)CC2=O [hesperetin-7,3′-O-dimethylether] as the molecule, how does the IC50 (PDE4 [7]) read?
The IC50 was 3 µM.
